Numbers after ± are expanded uncertainties.
Test: xn = mol fraction of the nth substance listed
Conditions: 101 kPa, Liquid; for viscosity: Capillary tube (Ostwald / Ubbelohde) method

CN1CCOCC1 [N-methylmorpholine] + c1ccccc1
Conditions	mass density, 313.15 K [kg/m3]	mass density, 323.15 K [kg/m3]	viscosity, 313.15 K [mPa·s]	viscosity, 323.15 K [mPa·s]
x2 = 0.0554	898.27 ± 1	879.87 ± 1	0.811 ± 0.011	0.789 ± 0.011
x2 = 0.1167	896.38 ± 0.95	878.41 ± 0.97	0.781 ± 0.01	0.761 ± 0.01
x2 = 0.1798	894.47 ± 0.88	876.92 ± 0.91	0.746 ± 0.01	0.731 ± 0.01
x2 = 0.2477	892.51 ± 0.82	875.44 ± 0.85	0.713 ± 0.009	0.695 ± 0.009
x2 = 0.2855	891.26 ± 0.79	874.46 ± 0.82	0.695 ± 0.009	0.676 ± 0.009
x2 = 0.3422	889.48 ± 0.75	873.1 ± 0.78	0.668 ± 0.009	0.647 ± 0.008
x2 = 0.3762	888.33 ± 0.72	872.2 ± 0.75	0.654 ± 0.008	0.632 ± 0.008
x2 = 0.4244	886.67 ± 0.69	870.91 ± 0.72	0.636 ± 0.008	0.613 ± 0.008
x2 = 0.479	884.72 ± 0.66	869.39 ± 0.69	0.617 ± 0.008	0.592 ± 0.008
x2 = 0.5466	881.97 ± 0.62	867.18 ± 0.65	0.598 ± 0.008	0.568 ± 0.008
x2 = 0.5911	880.1 ± 0.6	865.69 ± 0.63	0.587 ± 0.008	0.556 ± 0.007
x2 = 0.6201	878.76 ± 0.59	864.58 ± 0.62	0.579 ± 0.007	0.548 ± 0.007
x2 = 0.6822	875.84 ± 0.57	862.22 ± 0.6	0.565 ± 0.007	0.531 ± 0.007
x2 = 0.7094	874.61 ± 0.56	861.22 ± 0.59	0.561 ± 0.007	0.525 ± 0.007
x2 = 0.7655	871.56 ± 0.55	858.69 ± 0.57	0.551 ± 0.007	0.509 ± 0.007
x2 = 0.7901	870.14 ± 0.54	857.49 ± 0.57	0.548 ± 0.007	0.503 ± 0.007
x2 = 0.8439	867.09 ± 0.53	854.96 ± 0.56	0.535 ± 0.007	0.486 ± 0.007
x2 = 0.8933	864.21 ± 0.53	852.55 ± 0.55	0.521 ± 0.007	0.468 ± 0.007
x2 = 0.9278	862.18 ± 0.53	850.86 ± 0.55	0.512 ± 0.007	0.458 ± 0.007
x2 = 0.9641	859.95 ± 0.53	848.96 ± 0.55	0.503 ± 0.007	0.448 ± 0.007

— the NIST ThermoML archive (doi:10.1016/j.jct.2007.11.002)
